Laboratory results published in patent publication USRE47404E1, “Viral hepatitis treatment” (priority 2006, dated 2019).
Like-named read-outs stand apart in the source and are kept apart here.

How the values were obtained:
[1] = system: HCV replication in AVA5 replicon cell line (subgenomic construct of genotype 1b); assay: microbe, parasite or virus in culture
Procedure: (§1) Antiviral activity of nitazoxanide, tizoxanide, interferon α, ribavirin and 2′-C-methyl cytidine was assessed in five different HCV replicon cell lines: (1) AVA5, a subgenomic construct of genotype 1b (Blight et al., 2000, Science 290:1972-1974); (2) H/FL-Neo, a genotype 1a full length construct (Blight et al., 2003, Journal of Virology 77:3181-3190); (3) JWT, a subgenomic construct of genotype 1b (Pfeiffer and Kirkegaard, 2005, Journal of Virology, 79:2346-2355); (4) 4-3-10, a subgenomic construct of genotype 1b, developed by a protocol that involved serial passage of JWT cells in 100 μM for one month followed by 400 μM ribavirin for two weeks (Pfeiffer and Kirkegaard, 2005, Journal of Virology, 79:2346-2355); and (5) RP7, a subgenomic construct of genotype 1b (Elazar et al., 2003, Journal of Virology 77:6055-6061).
(§2) Antiviral activity for each test compound was determined as previously described (Okuse et al., 2005, Antiviral Research 65:23-34). Briefly, replicon cell lines were maintained as sub-confluent cultures on 96-well plates. Compounds were added daily for three days in fresh medium. Twenty-four hours after the last dose of compound, antiviral activity was determined by blot hybridization analysis of intracellular HCV RNA, and cytotoxicity was assessed by neutral red dye uptake. EC50, EC90, CC50 and selectivity index were calculated for each compound tested in a replicon cell line. […] Selectivity index=CC50 divided by EC50. EC50, EC90 and CC50 values (±standard deviations [S.D.]) were calculated by linear regression analysis using data combined from all treated cultures.
(§3) Nitazoxanide and tizoxanide were provided by Romark Laboratories, L.C. (Tampa, Fla. USA). […] Ribavirin was purchased from Sigma-Aldrich (St. Louis, Mo. USA). 2′-C-methyl cytidine (Pierra, et al. 2005, Nucleosides Nucleotides Nucleic Acids, 24:767-770) was purchased from Moraveck Biochemicals, Inc. (La Brea, Calif. USA). […] Ribavirin, nitazoxanide, tizoxanide and 2′-C-methyl cytidine were solubilized in 100% tissue culture grade DMSO (Sigma). […] Daily aliquots of test compounds were made from the stock solutions in individual tubes and stored at the appropriate temperatures. On each day of treatment, daily aliquots of the test compounds were suspended into culture medium at room temperature, and immediately added to the cell cultures, thereby subjecting each aliquot of test compound to the same, limited, number of freeze-thaw cycles.
Analyses of interactions between compounds used in combination treatments were performed using Calcusyn™ software (Biosoft, Cambridge, UK).

[2] = system: HCV replication in five HCV genotype 1-derived replicon cell lines; assay: Median over the five HCV replicon cell lines; assay type: cell-based, hepatitis C virus; details: Hepatitis C virus; median of the replicon cell lines
Procedure: as §1, §2

[3] = Cytotoxicity, neutral red dye uptake, H/FL-Neo; assay type: cell-based; details: human
Procedure: (§5) Briefly, replicon cell lines were maintained as sub-confluent cultures on 96-well plates. Compounds were added daily for three days in fresh medium. Twenty-four hours after the last dose of compound, antiviral activity was determined by blot hybridization analysis of intracellular HCV RNA, and cytotoxicity was assessed by neutral red dye uptake. EC50, EC90, CC50 and selectivity index were calculated for each compound tested in a replicon cell line. EC50=drug concentration producing a 50% reduction of intracellular HCV RNA relative to the average levels in untreated cultures. EC90=drug concentration producing a 90% reduction of intracellular HCV RNA relative to the average levels in untreated cultures. CC50=drug concentration producing a 50% reduction of neutral red dye uptake relative to the average levels in untreated cultures. Selectivity index=CC50 divided by EC50. EC50, EC90 and CC50 values (±standard deviations [S.D.]) were calculated by linear regression analysis using data combined from all treated cultures.

[4] = Cytotoxicity, neutral red dye uptake, AVA5; assay type: cell-based; details: human, AVA5 HCV replicon cells
Procedure: as §5

[5] = system: AVA5 cells; assay: Cytotoxicity, neutral red dye uptake, AVA5; assay type: cell-based; details: AVA5 cell cultures, mono and combination treatments (Table 2)
Procedure: as §5

[6] = Cytotoxicity, neutral red dye uptake, RP7; assay type: cell-based; details: human
Procedure: Selectivity index=CC50 divided by EC50.
(§4) The parental replicon-containing cell line was established by electroporation of RNA transcribed in vitro off of the Sca-I-linearized Bart 79I plasmid into Huh-7 cells (Elazar et al., 2003). Bart79I encodes for a second-generation high-efficiency bi-cistronic sub-genomic replicon of genotype 1b containing a single adaptive mutation (S1179I) in the NS5A gene, and the neomycinphosphotransferase gene in the first cistron. The electroporated cells were plated along with naïve Huh-7 feeder cells and grown in medium—DMEM (4.5 g/l glucose, L-glutamine and sodium pyruvate—Mediatech 10-013-CV), 10% fetal bovine serum, 1% Penicillin-streptomycin, 1% L-glutamine (final concentration 2 mM), 1×MEM Non-Essential Amino Acids (100×) (Invitrogen)—and 1 mg/ml G418. […] One of the resulting colonies was isolated, expanded, passaged in 700 μg/ml G418, and termed RP-7.

[7] = system: HCV replication; assay: Effect of nitazoxanide pre-treatment and treatment duration (3 or 6 days) on antiviral activity in replicon cultures; assay type: cell-based, hepatitis C virus; details: Hepatitis C virus, expressed as 2′CMeC concentration; for EC50: read-out: EC50, 2′CMeC; for EC90: read-out: EC90, 2′CMeC
Procedure: as §2, with “Compounds were added daily for three days in fresh medium.” left out
Antiviral activity and cytotoxicity was determined 24 hours after the end of each respective treatment as described previously.

[8] = system: HCV replication in RP7 replicon cell line (subgenomic construct of genotype 1b); assay: microbe, parasite or virus in culture; assay type: cell-based, hepatitis C virus
Procedure: as §1, §2, §3
To evaluate the effect of interferon alpha following pre-treatment with nitazoxanide or tizoxanide, a parental replicon-containing cell line (RP-7) was serially passaged in increasing concentrations of nitazoxanide or tizoxanide. Anti-HCV activity of interferon alpha-2b was determined using the parental cell line and using the cell lines obtained after passage in nitazoxanide or tizoxanide. Anti-HCV activity was determined by the methods described above.
as §4

[9] = system: HCV replication in H/FL-Neo replicon cell line (genotype 1a full length construct); assay: microbe, parasite or virus in culture; assay type: cell-based, hepatitis C virus
Procedure: as §1, §2, §3

[10] = system: HCV replication in 4-3-10 replicon cell line (subgenomic genotype 1b, JWT cells passaged in ribavirin); assay: microbe, parasite or virus in culture; assay type: cell-based, hepatitis C virus
Procedure: as §1, §2, §3

[11] = system: HCV replication in JWT replicon cell line (subgenomic construct of genotype 1b); assay: microbe, parasite or virus in culture; assay type: cell-based, hepatitis C virus
Procedure: as §1, §2, §3

[12] = Hepatitis C virus, read-out: EC50
[13] = Hepatitis C virus, read-out: EC90

For `C[C@@]1(O)[C@H](O)[C@@H](CO)O[C@H]1n1ccc(N)nc1=O` [2′-C-methyl cytidine], the “S.I. (Selectivity Index) = CC50/EC50” value ([1]; AVA5) was greater than 143, the “S.I. = CC50/EC50” value ([1]; AVA5 cell cultures (Table 2)) was greater than 188 and the EC50 ([1]; Hepatitis C virus, Ava5, 72 h) was 2100 ± 200 nM. The EC90 ([1]; Hepatitis C virus, Ava5, AVA5) was 8.1 ± 0.7 µM, the EC90 ([1]; Hepatitis C virus, GETYPE1B, Ava5, AVA5 cell cultures, mono and combination treatments (Table 2)) was 8.3 ± 0.7 µM and the EC50 [2] was 2100 nM. The EC90 [2] was 8.1 µM, the CC50 at 3 days [3] was greater than 1 mM and the CC50 at 3 days [4] was greater than 300 µM. It also gave a CC50 [5] greater than 300 µM, a CC50 at 3 days [6] greater than 300 µM and an EC50 ([7]; 72 h, duration 3 days) of 1700 ± 200 nM. It also gave an EC90 ([7]; 72 h, duration 3 days) of 6.2 ± 0.5 µM, an EC50 ([7]; 144 h, duration 6 days) of 1300 ± 200 nM and an EC90 ([7]; 144 h, duration 6 days) of 5.8 ± 0.9 µM. For the same compound, the “S.I. (Selectivity Index) = CC50/EC50” value [8] was greater than 150, the EC50 [8, 12] was 2000 ± 100 nM and the EC90 [8, 13] was 9 ± 0.6 µM. For the same compound, the “S.I. (Selectivity Index) = CC50/EC50” value [9] was greater than 556, the EC50 [9, 12] was 1800 ± 200 nM and the EC90 [9, 13] was 8.1 ± 0.8 µM. The “S.I. (Selectivity Index) = CC50/EC50” value ([10]; 4-3-10) was greater than 143, the EC50 ([10]; Hepatitis C virus) was 2100 ± 100 nM and the EC90 ([10]; Hepatitis C virus) was 8 ± 0.9 µM. For the same compound, the “S.I. (Selectivity Index) = CC50/EC50” value [11] was greater than 136, the EC50 [11, 12] was 2200 ± 100 nM and the EC90 [11, 13] was 8.2 ± 0.7 µM.
